Laboratory results reported in DBAASP.
Converted amounts (≈) assume the structure as drawn.

How the values were obtained:
Test in all cases: ≥ marks a high value that may be exact or a test limit, other limits are often not marked, values filed in µg/mL are converted to µM
[1] = tested on: Bacillus subtilis ATCC 23857
[2] = tested on: Escherichia coli ATCC 25922
[3] = tested on: Pseudomonas aeruginosa ATCC 9027
[4] = tested on: Staphylococcus aureus ATCC 6538
[5] = tested on: Acinetobacter baumannii
[6] = tested on: Klebsiella pneumoniae ATCC 700603
[7] = tested on: Staphylococcus aureus ATCC 25923

Row | Structure (SMILES) | MIC [3] [µM] | MIC [4] [µM] | further results
1 | CC[C@H](C)[C@H](NC(=O)CN)C(=O)N[C@H](C(=O)N[C@@H](CCCCN)C(=O)NCC(=O)N[C@H](C(=O)N[C@H](C(=O)N[C@@H](CCCCN)C(=O)N[C@H](C(=O)N[C@H](C(=O)N[C@@H](CCCCN)C(=O)N[C@@H](C)C(N)=O)[C@@H](C)CC)[C@@H](C)CC)[C@@H](C)CC)[C@@H](C)CC)[C@@H](C)CC [GIIKGIIKIIKA] |  |  | MIC [1]: 4 µM (≈ 5.06 µg/mL); MIC [2]: 128 µM (≈ 162 µg/mL)
2 | CC(C)C[C@H](NC(=O)[C@H](C)NC(=O)[C@H](CCCCN)NC(=O)[C@H](CCCCN)NC(=O)[C@H](C)NC(=O)[C@H](CC(C)C)NC(=O)[C@H](CCCCN)NC(=O)[C@H](CCCCN)NC(=O)[C@H](CC(C)C)NC(=O)[C@H](CCCCN)NC(=O)[C@H](CCCCN)NC(=O)[C@H](C)NC(=O)[C@H](CC(C)C)NC(=O)[C@H](CCCCN)NC(=O)[C@H](CCCCN)NC(=O)[C@H](CC(C)C)NC(=O)[C@H](C)NC(=O)[C@H](CCCCN)NC(=O)[C@H](CC(C)C)NC(=O)[C@H](C)NC(=O)[C@H](CC(C)C)NC(=O)[C@H](C)NC(=O)[C@@H](N)Cc1ccccc1)C(N)=O [FALALKALKKLAKKLKKLAKKAL] | 1.97 (≈ 5 µg/mL) | 3.94 (≈ 10 µg/mL) | 
3 | CC(C)C[C@H](NC(=O)[C@H](C)NC(=O)[C@H](CC(C)C)NC(=O)[C@H](C)NC(=O)[C@H](CCCCN)NC(=O)[C@H](CCCCN)NC(=O)[C@H](C)NC(=O)[C@H](CC(C)C)NC(=O)[C@H](CCCCN)NC(=O)[C@H](C)NC(=O)[C@H](CC(C)C)NC(=O)[C@H](CCCCN)NC(=O)[C@H](CCCCN)NC(=O)[C@H](C)NC(=O)[C@@H](N)Cc1ccccc1)C(N)=O [FAKKLAKLAKKALAL] | 15.5 (≈ 25 µg/mL) | 62 (≈ 99.9 µg/mL) | 
4 | CC(C)C[C@H](NC(=O)[C@H](C)NC(=O)[C@H](CC(C)C)NC(=O)[C@H](CCCCN)NC(=O)[C@H](C)NC(=O)[C@H](CC(C)C)NC(=O)[C@H](CCCCN)NC(=O)[C@H](CCCCN)NC(=O)[C@H](CC(C)C)NC(=O)[C@H](CCCCN)NC(=O)[C@H](CCCCN)NC(=O)[C@H](C)NC(=O)[C@H](CC(C)C)NC(=O)[C@H](CCCCN)NC(=O)[C@H](CCCCN)NC(=O)[C@H](C)NC(=O)[C@@H](N)Cc1ccccc1)C(=O)N[C@@H](C)C(=O)N[C@@H](CCCCN)C(N)=O [FAKKLAKKLKKLAKLALAK] | 4.74 (≈ 10 µg/mL) | 4.74 (≈ 10 µg/mL) | 
5 | CC[C@H](C)[C@H](NC(=O)[C@H](CCCCN)NC(=O)[C@H](CCCCN)NC(=O)[C@H](C)NC(=O)[C@H](CC(C)C)NC(=O)[C@H](CCCCN)NC(=O)[C@H](C)NC(=O)[C@H](CC(C)C)NC(=O)[C@H](CC(C)C)NC(=O)[C@H](CCCCN)NC(=O)[C@H](C)NC(=O)[C@@H](N)Cc1ccccc1)C(=O)N[C@@H](CC(C)C)C(N)=O [FAKLLAKLAKKIL] | 68.6 (≈ 99.9 µg/mL) | 6.86 (≈ 9.99 µg/mL) | 
6 | CC[C@H](C)[C@H](NC(=O)[C@@H](NC(=O)[C@H](CCCCN)NC(=O)[C@H](CCCCN)NC(=O)[C@H](CC(C)C)NC(=O)CN)C(C)C)C(=O)N[C@@H](CCCCN)C(=O)N[C@@H](CC(C)C)C(=O)N[C@@H](CC(C)C)C(=O)N[C@@H](CCCN=C(N)N)C(=O)N1CCC[C@H]1C(=O)N[C@@H](CC(C)C)C(=O)N[C@@H](CC(C)C)C(=O)O [GLKKVIKLLRPLL] | 16 (≈ 23.9 µg/mL) |  | MIC [5]: ≥ 32 µM; MIC [2]: > 64 µM; MIC [6]: > 64 µM; MIC [7]: 32 µM (≈ 47.7 µg/mL)
7 | CC(C)C[C@H](NC(=O)CNC(=O)[C@@H](NC(=O)[C@@H]1CCCN1C(=O)[C@H](CC(C)C)NC(=O)CNC(=O)[C@H](CC(N)=O)NC(=O)[C@H](CC(N)=O)NC(=O)[C@H](Cc1ccccc1)NC(=O)[C@@H](NC(=O)[C@H](CCCN=C(N)N)NC(=O)[C@H](CS)NC(=O)[C@H](CCCN=C(N)N)NC(=O)[C@H](Cc1cnc[nH]1)NC(=O)[C@H](CCCCN)NC(=O)[C@H](CCCCN)NC(=O)[C@H](CCCN=C(N)N)NC(=O)[C@@H](N)CCCCN)C(C)C)[C@@H](C)O)C(=O)N[C@@H](Cc1ccc(O)cc1)C(=O)N[C@@H](CCCN=C(N)N)C(=O)N[C@@H](Cc1c[nH]c2ccccc12)C(=O)N[C@@H](CS)C(N)=O [KRKKHRCRVFNNGLPTGLYRWC] |  | 4.1 (≈ 11.2 µg/mL) | 
